From publication PMC9040839 (mBio, 2022)
Where “and” joins values, the source holds several entries; their conditions need not be identical. Identical values can stand only once. Entries after “also recorded” stand apart in the source; their conditions may differ. Like-named read-outs stand apart in the source and are kept apart here.

What was measured:
P. aeruginosa PAO1 [1] = assay type: cell-based, Pseudomonas aeruginosa; settings: capillary assay; for concentration of maximal chemotaxis response / response threshold of chemotaxis: 30 min; for maximal accumulation: at 10 μM
Method: (§1) Overnight cultures in M9 minimal medium supplemented with 6 mg/L Fe-citrate, trace elements ([89]), and 15 mM glucose were used to inoculate fresh medium to an OD660 of 0.05. Cells were cultured at 30°C (Pectobacterium atrosepticum, Pantoea agglomerans, Serratia plymuthica, Pseudomonas stutzeri, Agrobacterium tumefaciens, Dickeya solani, Pseudomonas savastanoi pv. savastanoi) or 37°C (P. aeruginosa, E. coli, Salmonella enterica serovar Typhimurium) to an OD660 of 0.4 to 0.5. Subsequently, cells were washed twice by centrifugation (1,667 × g for 5 min at room temperature) and resuspension in chemotaxis buffer (50 mM KH2PO4/K2HPO4, […], 0.05% [vol/vol] glycerol, pH 7.0) and then resuspended in the same buffer at an OD660 of 0.1. Aliquots (230 μL) of the resulting cell suspension were placed into the wells of 96-well microtiter plates. Then, 1-μL capillaries (Microcaps, Drummond Scientific) were heat-sealed at one end and filled with buffer (control) or chemoeffector solution prepared in chemotaxis buffer. The capillaries were rinsed with sterile water and immersed into the bacterial suspensions at their open ends. After 30 min, capillaries were removed from the wells, rinsed with sterile water, and emptied into 1 mL of chemotaxis buffer. Serial dilutions were plated onto M9 minimal medium plates supplemented with 20 mM glucose, incubated at 30°C or 37°C prior to colony counting. Data were corrected with the number of cells that swam into buffer containing capillaries. Data are the means and standard deviations of three biological replicates conducted in triplicate.

P. atrosepticum SCRI1043 = assay: Capillary chemotaxis assay; assay type: cell-based, Pectobacterium atrosepticum; settings: 1 mM chemoeffector
Method: as §1

PctD(PA4633)-LBD = PctD(PA4633)-LBD (Pseudomonas aeruginosa, UniProt Q9HVF8); assay: biochemical; settings: for KD / ΔH: ITC, 25°C, pH 7.5
PctD(PA4633)-LBD, sequence (Q9HVF8 entry or part of it): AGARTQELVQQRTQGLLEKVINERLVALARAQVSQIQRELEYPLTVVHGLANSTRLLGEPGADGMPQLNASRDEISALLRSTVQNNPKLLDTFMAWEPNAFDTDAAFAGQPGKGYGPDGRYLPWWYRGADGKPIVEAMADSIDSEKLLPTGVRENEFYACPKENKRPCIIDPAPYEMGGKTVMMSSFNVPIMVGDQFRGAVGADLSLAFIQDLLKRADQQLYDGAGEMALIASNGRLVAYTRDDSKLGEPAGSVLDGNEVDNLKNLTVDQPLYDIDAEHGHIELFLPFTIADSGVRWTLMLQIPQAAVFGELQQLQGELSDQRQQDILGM
Method: Measurements were made using a VP-ITC microcalorimeter (MicroCal, Inc., Northampton, MA) at 25°C. […] The mean enthalpies from the injection of ligands into the buffer were subtracted from raw data prior to data fitting using the “one binding site model” of the MicroCal version of the ORIGIN software.

PacA(ECA_RS10935)-LBD = PacA(ECA_RS10935)-LBD (Pectobacterium atrosepticum, UniProt Q6D515); assay: Isothermal titration calorimetry of PacA-LBD with ligands; assay type: binding, P. atrosepticum SCRI1043; settings: ITC, 25°C, pH 7.0
PacA(ECA_RS10935)-LBD, sequence (Q6D515 entry or part of it): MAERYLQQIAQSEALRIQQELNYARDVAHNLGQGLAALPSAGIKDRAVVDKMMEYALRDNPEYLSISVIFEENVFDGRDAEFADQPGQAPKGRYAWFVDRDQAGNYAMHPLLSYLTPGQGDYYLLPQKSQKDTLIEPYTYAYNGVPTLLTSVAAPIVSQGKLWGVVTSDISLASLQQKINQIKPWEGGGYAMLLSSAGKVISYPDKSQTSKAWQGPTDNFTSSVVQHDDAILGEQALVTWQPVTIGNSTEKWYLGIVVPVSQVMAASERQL
Method: Measurements were made using a VP-ITC microcalorimeter (MicroCal, Inc., Northampton, MA) at 25°C. PA4633-LBD was dialyzed into 5 mM Tris, 5 mM PIPES [piperazine-N,N′-bis(2-ethanesulfonic acid)], 5 mM MES (morpholineethanesulfonic acid), 150 mM NaCl, 10% (vol/vol) glycerol, pH 7.5, whereas ECA_RS10935-LBD was dialyzed into 40 mM KH2PO4/K2HPO4, 10% (vol/vol) glycerol, pH 7.0. Proteins at 15 to 22 μM were placed into the sample cell and titrated with 9.6-μL aliquots of 0.5 to 10 mM ligand solutions made up in dialysis buffer. […] The mean enthalpies from the injection of ligands into the buffer were subtracted from raw data prior to data fitting using the “one binding site model” of the MicroCal version of the ORIGIN software.

PctD-Tar hybrid = PctD-Tar hybrid (Pseudomonas aeruginosa, UniProt Q9HVF8); assay: cell-based
PctD-Tar hybrid, sequence (Q9HVF8 entry or part of it): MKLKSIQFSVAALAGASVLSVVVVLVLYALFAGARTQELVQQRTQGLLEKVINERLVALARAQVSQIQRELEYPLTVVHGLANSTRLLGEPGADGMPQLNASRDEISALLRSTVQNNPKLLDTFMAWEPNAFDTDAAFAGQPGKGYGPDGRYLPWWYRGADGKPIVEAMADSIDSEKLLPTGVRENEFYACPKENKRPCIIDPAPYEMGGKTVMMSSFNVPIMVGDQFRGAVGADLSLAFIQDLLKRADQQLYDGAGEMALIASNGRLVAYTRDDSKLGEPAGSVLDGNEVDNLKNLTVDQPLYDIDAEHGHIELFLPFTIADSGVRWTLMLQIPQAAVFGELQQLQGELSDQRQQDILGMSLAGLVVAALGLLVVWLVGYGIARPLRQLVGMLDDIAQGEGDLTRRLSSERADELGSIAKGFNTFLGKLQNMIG
PctD-Tar hybrid, sequence (P07017 267-553, further chain): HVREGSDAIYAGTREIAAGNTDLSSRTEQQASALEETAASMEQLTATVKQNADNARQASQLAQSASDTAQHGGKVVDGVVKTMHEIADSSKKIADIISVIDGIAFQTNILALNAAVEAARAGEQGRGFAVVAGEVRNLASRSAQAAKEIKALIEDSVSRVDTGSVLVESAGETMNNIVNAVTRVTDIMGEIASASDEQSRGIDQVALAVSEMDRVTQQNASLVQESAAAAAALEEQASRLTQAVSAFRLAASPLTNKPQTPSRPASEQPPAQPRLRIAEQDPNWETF

P. aeruginosa PAO1 [2] = assay: Growth experiments with Biolog compound array PM2A; assay type: cell-based, Pseudomonas aeruginosa; settings: M9 minimal medium, 96-well plate, 48 h, 37°C
Method: PAO1 was grown overnight in M9 minimal medium containing 10 mM glucose. Cultures were washed twice and then diluted to an OD600 of 0.02 in either M9 or M8 medium (M9 minimal medium without NH4Cl) containing 10 mM glucose and medium supplemented with each of the compounds present in the Biolog compound array PM2A (https://www.biolog.com/wp-content/uploads/2020/04/00A-042-Rev-C-Phenotype-MicroArrays-1-10-Plate-Maps.pdf) as sole carbon source. Then, 200 μL of these cultures were transferred into microwell plates, and growth at 37°C was followed on a Bioscreen microbiological growth analyzer (Oy Growth Curves Ab Ltd., Helsinki, Finland).

Dickeya solani MK10 = assay: Capillary chemotaxis assay; assay type: cell-based; settings: 1 mM acetylcholine
Method: as §1, with “Data were corrected with the number of cells that swam into buffer containing capillaries. Data are the means and standard deviations of three biological replicates conducted in triplicate.” left out

[3] = test system: Agrobacterium tumefaciens C58; assay: Capillary chemotaxis assay; assay type: cell-based; settings: 1 mM acetylcholine
Method: as §1, with “Data were corrected with the number of cells that swam into buffer containing capillaries. Data are the means and standard deviations of three biological replicates conducted in triplicate.” left out

BmrR = target: BmrR; parameters: method as in PMID 21690368; settings: cited from earlier work
[4] = test system: E. coli strain UU1250 expressing PctD-Tar; assay type: cell-based
Method: The microfluidic assay was performed as previously described, using a chip with 24 parallel microchannels ([105]). […]. Cells were harvested by centrifugation and washed twice with tethering buffer. Chemoeffectors were dissolved in tethering buffer at a concentration of 50 mM, and the pH was adjusted to 7.0. The chemical source microchannels were filled with 4% (wt/vol) agarose gel to create a semipermeable barrier. E. coli cells were added to the reservoir well and allowed to spread for 30 min into the channels. Compounds were added to the source well and allowed to form a concentration gradient. Cell fluorescence was recorded with a Ti-E inverted microscope system (Nikon Instruments Europe BV, Amsterdam, Netherlands) using a 20×lens objective. Data were analyzed using ImageJ (Wayne Rasband, NIH, USA).

TlpQ = settings: cited from earlier work
P. aeruginosa = settings: cited from earlier work

| SMILES | chemoattraction (P. aeruginosa PAO1 [1]) | concentration of maximal chemotaxis response (P. aeruginosa PAO1 [1]) [µM] | response threshold of chemotaxis (P. aeruginosa PAO1 [1]) [µM] | chemotaxis response (P. atrosepticum SCRI1043) | KD (PctD(PA4633)-LBD) | ΔH (PctD(PA4633)-LBD) | Kd (PacA(ECA_RS10935)-LBD) [µM] | ΔH (PacA(ECA_RS10935)-LBD) | EC50 (PctD-Tar hybrid) [µM] | maximal accumulation (P. aeruginosa PAO1 [1]) | Kd (PctD(PA4633)-LBD) [µM] | other results |
| --- | --- | --- | --- | --- | --- | --- | --- | --- | --- | --- | --- | --- |
| C[N+](C)(C)C[C@H](O)CC(=O)[O-] [L-carnitine] | chemoattraction | 10000 | 100 | low but reproducible chemotaxis | No response; also recorded: could not be visualized; also recorded: No binding | No binding | 20 ± 2 | -4.9 ± 0.4 kcal/mol | 31 ± 6 |  |  | growth as carbon source (P. aeruginosa PAO1 [2]): significant growth |
| CC(=O)OCC[N+](C)(C)C [acetylcholine] |  | 10 | 1 | failed to respond |  | -12.2 ± 1.0 kcal/mol |  | No binding |  | ~300,000 bacteria per capillary |  | magnitude of chemotaxis (Dickeya solani MK10): about a third of that observed in P. aeruginosa; magnitude of chemotaxis [3]: comparable to that in P. aeruginosa; Kd (BmrR): 6.6 µM; KD (PacA(ECA_RS10935)-LBD): fails to recognize; also recorded: absence of binding; KD (PacA(ECA_RS10935)-LBD; listed as Acetylcholine): No binding; chemoattraction in microfluidic assay ([4]; 50 mM in source channel): much stronger chemoattraction |
| C[N+](C)(C)CC(=O)O [betaine] | comparable to that of L-carnitine |  |  | low but reproducible chemotaxis | low affinity | -2.4 ± 4.1 kcal/mol | 7.5 ± 0.1 | -16.1 ± 0.1 kcal/mol | 150 ± 25 |  | 990 ± 59 |  |
| C[N+](C)(C)CCO [choline] |  | 10 | 0.1 | low but reproducible chemotaxis |  | -20.3 ± 0.3 kcal/mol | 113 ± 16.4 | -2.1 ± 0.2 kcal/mol | 0.04 ± 0.01 | ~300,000 bacteria per capillary | 2.6 ± 0.1 | chemoattraction in microfluidic assay [4]: much stronger chemoattraction |
| NCCc1c[nH]cn1 [histamine] |  |  |  |  |  |  |  |  |  |  |  | Kd (TlpQ): 0.64 µM and 1.2 µM; lowest concentration giving attraction (P. aeruginosa): 500 nM |
